In PMC12951562, “SH2scan: Mapping SH2 Domain-Ligand Binding Selectivity for Inhibitors and Degraders” (Journal of Medicinal Chemistry, 2026):

Key:
Assay in all cases: biochemical
Format in all cases: binding
VAV1 = target: T1, VAV1 (Homo sapiens, UniProt P15498); details: read-out: percent of DMSO vehicle control
T1 construct: made in house; host or cells: HEK293 (transient transfection), unpurified extract
T1 sequence (P15498 1-845): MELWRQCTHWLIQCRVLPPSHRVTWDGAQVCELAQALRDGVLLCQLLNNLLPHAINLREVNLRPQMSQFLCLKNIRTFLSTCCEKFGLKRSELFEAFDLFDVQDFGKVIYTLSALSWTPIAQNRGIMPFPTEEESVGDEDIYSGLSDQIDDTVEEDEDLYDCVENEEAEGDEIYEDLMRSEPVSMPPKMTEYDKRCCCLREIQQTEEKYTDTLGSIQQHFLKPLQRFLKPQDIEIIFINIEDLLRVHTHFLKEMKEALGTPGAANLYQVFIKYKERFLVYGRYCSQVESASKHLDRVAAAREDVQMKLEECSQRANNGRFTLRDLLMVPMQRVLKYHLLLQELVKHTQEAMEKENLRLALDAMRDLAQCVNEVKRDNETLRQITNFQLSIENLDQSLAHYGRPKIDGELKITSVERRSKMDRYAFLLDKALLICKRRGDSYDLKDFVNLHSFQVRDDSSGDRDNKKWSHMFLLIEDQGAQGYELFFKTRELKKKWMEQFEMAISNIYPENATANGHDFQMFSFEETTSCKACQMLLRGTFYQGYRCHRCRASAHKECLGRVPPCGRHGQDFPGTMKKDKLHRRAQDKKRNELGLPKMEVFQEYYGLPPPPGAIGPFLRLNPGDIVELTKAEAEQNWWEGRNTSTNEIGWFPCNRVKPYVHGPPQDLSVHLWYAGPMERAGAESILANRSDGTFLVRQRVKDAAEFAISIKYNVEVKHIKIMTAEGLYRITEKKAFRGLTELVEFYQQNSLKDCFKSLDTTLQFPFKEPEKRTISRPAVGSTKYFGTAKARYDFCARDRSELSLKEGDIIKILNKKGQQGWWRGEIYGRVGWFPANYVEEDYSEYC

ABL1 = target: T2, ABL1 (Homo sapiens, UniProt P00519); details: read-out: percent of DMSO vehicle control
T2 construct: the DNA-tagged SH2 domain concentrations used in this study were <0.1 nM; made in house; host or cells: HEK293 (transient transfection; unpurified extract)
T2 sequence (P00519 127-217 limits assumed): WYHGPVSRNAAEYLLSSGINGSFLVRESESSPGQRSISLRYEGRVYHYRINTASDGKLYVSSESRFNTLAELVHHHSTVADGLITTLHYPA

MATK = target: T3, MATK (Homo sapiens, UniProt P42679); details: read-out: percent of DMSO vehicle control
T3 construct: the DNA-tagged SH2 domain concentrations used in this study were <0.1 nM; made in house; host or cells: HEK293 (transient transfection, unpurified extract)
T3 sequence (P42679 122-211 limits assumed): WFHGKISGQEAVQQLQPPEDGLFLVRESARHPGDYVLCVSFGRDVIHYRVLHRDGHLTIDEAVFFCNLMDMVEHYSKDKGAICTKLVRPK

STAT1 = target: T4, STAT1 (Homo sapiens, UniProt P42224)
T4 construct: made in house; host or cells: HEK293 (transient transfection), unpurified extract
T4 sequence (P42224 1-750): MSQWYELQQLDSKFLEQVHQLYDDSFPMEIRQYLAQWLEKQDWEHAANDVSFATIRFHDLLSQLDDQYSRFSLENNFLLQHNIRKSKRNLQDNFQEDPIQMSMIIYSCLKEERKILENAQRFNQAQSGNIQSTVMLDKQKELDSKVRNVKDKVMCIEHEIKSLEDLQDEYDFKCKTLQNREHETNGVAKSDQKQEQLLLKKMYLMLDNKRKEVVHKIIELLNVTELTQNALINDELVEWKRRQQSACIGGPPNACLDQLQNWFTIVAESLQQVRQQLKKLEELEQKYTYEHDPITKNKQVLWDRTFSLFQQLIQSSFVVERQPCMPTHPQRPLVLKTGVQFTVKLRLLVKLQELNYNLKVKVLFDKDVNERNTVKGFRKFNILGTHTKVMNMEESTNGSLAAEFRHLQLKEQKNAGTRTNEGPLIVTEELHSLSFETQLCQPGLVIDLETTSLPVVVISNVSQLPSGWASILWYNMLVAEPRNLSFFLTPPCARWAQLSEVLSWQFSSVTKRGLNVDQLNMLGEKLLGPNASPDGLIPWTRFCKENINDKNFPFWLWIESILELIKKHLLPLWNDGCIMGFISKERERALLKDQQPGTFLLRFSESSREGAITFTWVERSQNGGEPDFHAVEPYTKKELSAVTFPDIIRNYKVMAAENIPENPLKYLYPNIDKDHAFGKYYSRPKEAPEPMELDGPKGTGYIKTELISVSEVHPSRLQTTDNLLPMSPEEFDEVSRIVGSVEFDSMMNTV

FGR = target: T5, FGR (Homo sapiens, UniProt P09769); details: read-out: percent of DMSO vehicle control
T5 construct: the DNA-tagged SH2 domain concentrations used in this study were <0.1 nM; made in house; host or cells: HEK293 (transient transfection; unpurified extract)
T5 sequence (P09769 144-241 limits assumed): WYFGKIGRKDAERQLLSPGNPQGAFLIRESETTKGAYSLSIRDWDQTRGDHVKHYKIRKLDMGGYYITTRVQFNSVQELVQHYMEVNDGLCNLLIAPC

SHB = target: T6, SHB (Homo sapiens, UniProt Q15464); details: read-out: percent of DMSO vehicle control
T6 construct: made in house; host or cells: HEK293 (transient transfection), unpurified extract
T6 sequence (Q15464 whole entry): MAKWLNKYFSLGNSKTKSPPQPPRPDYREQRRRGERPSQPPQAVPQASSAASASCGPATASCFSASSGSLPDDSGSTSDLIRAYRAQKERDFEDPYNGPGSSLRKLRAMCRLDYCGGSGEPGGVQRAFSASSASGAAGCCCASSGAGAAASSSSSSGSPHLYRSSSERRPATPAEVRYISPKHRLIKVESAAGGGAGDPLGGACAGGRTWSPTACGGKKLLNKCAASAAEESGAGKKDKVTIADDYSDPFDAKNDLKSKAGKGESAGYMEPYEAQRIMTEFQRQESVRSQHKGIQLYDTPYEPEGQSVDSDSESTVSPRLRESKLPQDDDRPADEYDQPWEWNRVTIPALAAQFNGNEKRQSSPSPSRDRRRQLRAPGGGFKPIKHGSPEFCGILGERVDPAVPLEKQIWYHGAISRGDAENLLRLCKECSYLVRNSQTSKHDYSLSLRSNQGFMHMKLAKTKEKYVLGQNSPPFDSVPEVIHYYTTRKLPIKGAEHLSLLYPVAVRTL

GRB14 = target: T7, GRB14 (Homo sapiens, UniProt Q14449); details: read-out: percent of DMSO vehicle control
T7 construct: the DNA-tagged SH2 domain concentrations used in this study were <0.1 nM; made in house; host or cells: HEK293 (transient transfection; unpurified extract)
T7 sequence (Q14449 439-535 limits assumed): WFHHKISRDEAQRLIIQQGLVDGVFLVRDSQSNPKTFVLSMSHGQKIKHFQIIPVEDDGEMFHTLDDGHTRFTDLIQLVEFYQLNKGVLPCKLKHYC

LYN = target: T8, LYN (Homo sapiens, UniProt P07948); details: read-out: percent of DMSO vehicle control
T8 construct: the DNA-tagged SH2 domain concentrations used in this study were <0.1 nM; made in house; host or cells: HEK293 (transient transfection, unpurified extract)
T8 sequence (P07948 129-226 limits assumed): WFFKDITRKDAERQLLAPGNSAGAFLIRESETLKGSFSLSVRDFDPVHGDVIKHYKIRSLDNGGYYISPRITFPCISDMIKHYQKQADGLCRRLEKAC

SH2B (SH2B1) = target: T9, SH2B (SH2B1) (Homo sapiens, UniProt Q9NRF2); details: read-out: percent of DMSO vehicle control
T9 construct: made in house; host or cells: HEK293 (transient transfection), unpurified extract

GADS = target: T10, GADS (Homo sapiens, UniProt O75791); details: read-out: percent of DMSO vehicle control
T10 construct: the DNA-tagged SH2 domain concentrations used in this study were <0.1 nM; made in house; host or cells: HEK293 (transient transfection; unpurified extract)
T10 sequence (O75791 58-149 limits assumed): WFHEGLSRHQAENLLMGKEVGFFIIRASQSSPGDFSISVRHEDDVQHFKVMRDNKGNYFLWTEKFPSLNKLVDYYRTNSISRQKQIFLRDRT

LNK (SH2B3) = target: T11, LNK (SH2B3) (Homo sapiens, UniProt Q9UQQ2); details: read-out: percent of DMSO vehicle control
T11 construct: the DNA-tagged SH2 domain concentrations used in this study were <0.1 nM; made in house; host or cells: HEK293 (transient transfection, unpurified extract)
T11 sequence (Q9UQQ2 364-462 limits assumed): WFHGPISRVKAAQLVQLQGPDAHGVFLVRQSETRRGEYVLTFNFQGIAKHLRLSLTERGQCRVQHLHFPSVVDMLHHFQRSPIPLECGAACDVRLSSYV

SH2D1B = target: T12, SH2D1B (Homo sapiens, UniProt O14796); details: read-out: percent of DMSO vehicle control
T12 construct: made in house; host or cells: HEK293 (transient transfection), unpurified extract
T12 sequence (O14796 1-132): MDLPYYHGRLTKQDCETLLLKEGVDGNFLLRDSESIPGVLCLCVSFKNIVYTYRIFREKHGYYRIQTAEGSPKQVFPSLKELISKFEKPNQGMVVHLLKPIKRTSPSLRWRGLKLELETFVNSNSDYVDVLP

CC(=O)N1CC[C@H]2CC[C@@H](C(=O)N[C@@H](CCC(N)=O)C(=O)NC(c3ccccc3)c3ccccc3)N2C(=O)[C@@H](NC(=O)c2cc3cc(C(F)(F)P(=O)(O)O)ccc3[nH]2)C1 [SI-109]
percent of DMSO vehicle control at 10 µM (VAV1): 112% | percent of DMSO control binding at 10 µM (ABL1): 132% | percent of DMSO vehicle control at 10 µM (MATK): 163% | Kd (STAT1): 180 ± 35 nM | remaining activity at 10 µM (STAT1; read-out: percent of DMSO vehicle control): 0% | remaining activity at 10 µM (FGR): 128% | remaining activity at 10 µM (SHB): 129% | remaining activity at 10 µM (GRB14): 110% | remaining activity at 10 µM (LYN): 140% | remaining activity at 10 µM (SH2B (SH2B1)): 149% | percent of DMSO vehicle control at 10 µM (GADS): 276% | remaining activity at 10 µM (LNK (SH2B3)): 81.4 ± 6.7% | remaining activity at 10 µM (SH2D1B): 223%
